Measurements reported in publication PMC11025614 (Pharmacology Research & Perspectives, 2024).

How the values were obtained:
[1] = oral midazolam with fluconazole; cited from earlier work
[2] = PopPK modeling; assay type: in vivo, human; conditions: for Vd: female, human, blood, oral
[3] = Therapeutic drug monitoring of sirolimus trough concentration; assay type: in vivo, human
[4] = cited from earlier work

SMILES: Cc1ncc2n1-c1ccc(Cl)cc1C(c1ccccc1F)=NC2 [midazolam]
- increase of AUC [1]: 270%
- increase of C max [1]: 130%

SMILES: CO[C@H]1C[C@@H]2CC[C@@H](C)[C@@](O)(O2)C(=O)C(=O)N2CCCC[C@H]2C(=O)O[C@H]([C@H](C)C[C@@H]2CC[C@@H](O)[C@H](OC)C2)CC(=O)[C@H](C)/C=C(\C)[C@@H](O)[C@@H](OC)C(=O)[C@H](C)C[C@H](C)/C=C/C=C/C=C/1C [sirolimus]
- CL1 (apparent oral clearance, clearance from central compartment) ([2]; before fluconazole): 30.7 L/h
- CL2 (clearance between central and peripheral compartments) ([2]; before fluconazole): 253 L/h
- V 2 (volume of distribution of peripheral compartment) ([2]; before fluconazole): 305 L
- CL1 (apparent oral clearance, clearance from central compartment) ([2]; during fluconazole): 14.1 L/h
- CL2 (clearance between central and peripheral compartments) ([2]; during fluconazole): 8.56 L/h
- V 2 (volume of distribution of peripheral compartment) ([2]; during fluconazole): 361 L
- Vd [2]: 81.3 L
- Vd ([2]; 5 mg/day): 33.7 L
- sirolimus C min ([3]; 4.5 mg twice daily with fluconazole 400 mg/day): 8.2 ng/mL
- sirolimus C min ([3]; 9 mg daily with oral fluconazole 400 mg once daily, day 3 after initiation): 4.7 ng/mL
- sirolimus C min ([3]; after 1 week of 9 mg/day (assumed steady-state), no fluconazole): 2.9 to 4.2 ng/mL
- sirolimus concentrations ([3]; afterward, during fluconazole, for more than 4 weeks): 3.1 to 9.5 ng/mL
- mean sirolimus C min ([3]; maintenance dose 9 mg sirolimus/day, before fluconazole): 3.5 ng/mL
- variation in apparent oral clearance between patients ([4]; ciclosporin and prednisone coadministered): 4.5 fold
- apparent oral sirolimus clearance, population mean ([4]; estimated by Wu and coworkers): 12.9 L/h
